Values quoted from earlier work in patent publication US20120101390A1, “Multi-Modal Imaging for Diagnosis of Early Stage Epithelial Cancers” (priority 2010, published 2012).

Target: T1, integrin αvβ3 (Homo sapiens, UniProt P05106+P06756)
T1 construct: integrin αvβ3-positive U87MG xenograft models; endogenous in cells; host or cells: U87MG (tumour xenograft)
Settings: integrin αvβ3-positive U87MG xenograft models

T1 sequence (P06756 31-889 limits assumed): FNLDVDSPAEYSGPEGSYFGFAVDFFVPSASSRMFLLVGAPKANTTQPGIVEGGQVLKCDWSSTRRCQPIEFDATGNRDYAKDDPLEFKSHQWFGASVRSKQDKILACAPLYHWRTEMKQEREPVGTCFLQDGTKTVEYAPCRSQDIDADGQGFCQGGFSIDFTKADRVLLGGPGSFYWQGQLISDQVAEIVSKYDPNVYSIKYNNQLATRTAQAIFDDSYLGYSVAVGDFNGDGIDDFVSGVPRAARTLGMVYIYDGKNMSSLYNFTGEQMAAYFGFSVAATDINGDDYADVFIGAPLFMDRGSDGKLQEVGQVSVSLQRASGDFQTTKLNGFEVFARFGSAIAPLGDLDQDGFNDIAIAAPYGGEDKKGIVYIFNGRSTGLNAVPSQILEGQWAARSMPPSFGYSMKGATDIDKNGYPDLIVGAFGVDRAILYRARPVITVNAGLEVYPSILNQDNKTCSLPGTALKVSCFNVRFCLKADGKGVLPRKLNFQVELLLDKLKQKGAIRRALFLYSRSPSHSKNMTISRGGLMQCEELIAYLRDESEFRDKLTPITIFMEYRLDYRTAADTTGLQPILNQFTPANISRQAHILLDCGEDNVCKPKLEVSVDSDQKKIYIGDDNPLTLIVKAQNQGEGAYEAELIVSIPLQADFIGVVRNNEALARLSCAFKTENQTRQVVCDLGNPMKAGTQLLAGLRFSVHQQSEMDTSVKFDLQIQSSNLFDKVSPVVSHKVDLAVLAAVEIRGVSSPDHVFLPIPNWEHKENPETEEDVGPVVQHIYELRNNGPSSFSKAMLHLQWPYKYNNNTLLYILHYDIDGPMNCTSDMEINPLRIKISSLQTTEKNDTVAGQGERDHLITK
T1 sequence (P06756 891-1048 limits assumed): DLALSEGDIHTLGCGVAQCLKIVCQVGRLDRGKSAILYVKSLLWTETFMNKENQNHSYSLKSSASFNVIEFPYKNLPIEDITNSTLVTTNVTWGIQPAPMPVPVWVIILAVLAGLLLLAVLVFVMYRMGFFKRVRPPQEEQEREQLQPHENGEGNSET
T1 sequence (P05106 27-788): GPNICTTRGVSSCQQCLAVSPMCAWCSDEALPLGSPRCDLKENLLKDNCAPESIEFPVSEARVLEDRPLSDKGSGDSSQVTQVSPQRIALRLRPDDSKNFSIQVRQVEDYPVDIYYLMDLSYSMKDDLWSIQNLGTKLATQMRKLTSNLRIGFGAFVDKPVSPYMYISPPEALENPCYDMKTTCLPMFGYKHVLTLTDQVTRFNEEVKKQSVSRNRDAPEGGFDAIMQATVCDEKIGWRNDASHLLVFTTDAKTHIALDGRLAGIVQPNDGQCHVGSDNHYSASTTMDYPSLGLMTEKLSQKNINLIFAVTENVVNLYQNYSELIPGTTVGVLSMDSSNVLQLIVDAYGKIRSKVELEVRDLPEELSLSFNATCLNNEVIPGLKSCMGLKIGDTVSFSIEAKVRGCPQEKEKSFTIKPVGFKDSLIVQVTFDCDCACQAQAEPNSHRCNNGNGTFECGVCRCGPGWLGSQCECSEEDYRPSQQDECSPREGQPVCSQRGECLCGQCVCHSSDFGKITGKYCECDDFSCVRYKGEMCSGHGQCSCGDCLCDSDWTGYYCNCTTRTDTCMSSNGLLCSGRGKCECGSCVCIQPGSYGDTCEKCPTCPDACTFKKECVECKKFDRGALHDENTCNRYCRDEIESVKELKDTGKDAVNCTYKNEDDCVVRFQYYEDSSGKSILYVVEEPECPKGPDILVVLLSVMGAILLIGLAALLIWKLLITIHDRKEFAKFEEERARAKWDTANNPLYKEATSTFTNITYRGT

binding relative to the monomeric counterpart | Substance
stronger binding | E-[c(RGDfK)]2
stronger binding | E-{G-[c(RGDfK)]2}2
stronger binding | E-[G-G-G-c(RGDfK)]2
